Data: PubChem BioAssay AID488788 (Broad Institute, 2010)
Inconclusive results are not listed. Calls of active or inactive are those of the source. How the calls were made is not given here.

Target: CAAX prenyl protease 2 (Saccharomyces cerevisiae (strain ATCC 204508 / S288c)) (UniProt Q03530)
Assay: Rce1p protease inhibitors, dose response, biochemical, plate reader, cherry-pick (AID 488788)
Conditions: Rce1p enzyme activity; for activity change, negative = inhibition: at 10 µM (top of the series)

Chain of CAAX prenyl protease 2 (Saccharomyces cerevisiae (strain ATCC 204508 / S288c)) (Q03530 whole entry, looked up): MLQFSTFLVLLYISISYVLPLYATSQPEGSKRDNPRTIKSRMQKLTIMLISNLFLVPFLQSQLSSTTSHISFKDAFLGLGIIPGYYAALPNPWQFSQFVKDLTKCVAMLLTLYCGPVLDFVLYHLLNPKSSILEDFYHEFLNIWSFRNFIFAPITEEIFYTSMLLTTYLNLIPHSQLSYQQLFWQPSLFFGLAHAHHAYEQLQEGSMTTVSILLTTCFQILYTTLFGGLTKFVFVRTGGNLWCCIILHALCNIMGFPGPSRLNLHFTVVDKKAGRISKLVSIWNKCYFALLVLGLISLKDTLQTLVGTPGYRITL

CCC(=O)Nc1cc(-c2nn(CC(=O)N3CCCCC3)c(=O)c3ccccc23)ccc1N1CCOCC1
activity change, negative = inhibition: inactive

CCCCn1c(=O)c(-c2ccccc2)c(O)c2ccccc21
activity change, negative = inhibition: inactive

COc1ccc(-c2c(-c3ccsc3)oc3ccc(N4CCOCC4)cc23)cn1
activity change, negative = inhibition: inactive

O=C(C1=C[C@@H](C2CC2)C[C@@H](OCc2ccc(CO)cc2)O1)N1CCN(Cc2ccccc2)CC1
activity change, negative = inhibition: inactive

CCCCNC(=S)NNC(=O)CCn1cc(C)cn1
activity change, negative = inhibition: inactive

CCC(COC)NC(=O)CCc1nnc(Cc2cccc(C(F)(F)F)c2)o1 (stereo not drawn)
activity change, negative = inhibition: inactive

Cc1nn(-c2ccccc2)c2nc(N)c(C(N)=O)cc12
activity change, negative = inhibition: inactive

CCOc1ccc(OCC)c(NC(=O)c2nnn(CC(=O)Nc3cc(C)cc(C)c3)c2N)c1
activity change, negative = inhibition: inactive

COc1ccc(-c2cn3ccccc3n2)cc1[N+](=O)[O-]
activity change, negative = inhibition: inactive

O=C(Nc1cc(S(=O)(=O)N2CCOCC2)ccc1N1CCCC1)c1cnccn1
activity change, negative = inhibition: inactive

CCN1CCN(CC(O)COc2ccc3c(C)cc(=O)oc3c2)CC1 (stereo not drawn)
activity change, negative = inhibition: inactive

CCC(=O)Nc1cccc(NC(=S)NC(=O)c2cccs2)c1
activity change, negative = inhibition: inactive

COC(=O)Cn1c(CCC(=O)O)ccc1-c1ccccc1
activity change, negative = inhibition: inactive

COc1ccc(-c2cc(C(F)(F)F)nc(SCC(=O)NCc3cnn(C)c3C)n2)cc1OC
activity change, negative = inhibition: inactive

COc1ccc(-n2c(N)c(C(=O)NCc3ccco3)c3nc4ccccc4nc32)c(OC)c1
activity change, negative = inhibition: inactive

COc1cccc(NC(=O)Nc2cccn(Cc3ccc(C)cc3)c2=O)c1
activity change, negative = inhibition: inactive

O=C(O)CCCC[C@@H]1SC[C@@H]2NC(=O)N[C@@H]21
activity change, negative = inhibition: inactive

CCOC(=O)c1c(-c2ccc(OC)cc2)oc2ccc(OC(=O)N(C)C)cc12
activity change, negative = inhibition: inactive

CCCCn1c(-c2sccc2C)n[nH]c1=S
activity change, negative = inhibition: inactive

CSc1ccc(C(=O)C2CCCN(C(=O)c3cccnc3SC)C2)cc1 (stereo not drawn)
activity change, negative = inhibition: inactive

CC(=O)c1c(O)cc(O)c(C(C)=O)c1O
activity change, negative = inhibition: inactive

COCCn1cc(C(=O)NCCN(C)C)c2c3ccccc3n(C)c2c1=O
activity change, negative = inhibition: inactive

Cc1ccc(S(=O)(=O)c2cn(C)c3cc(N4CCOCC4)c(F)cc3c2=O)cc1
activity change, negative = inhibition: inactive

Cc1cc(C)n2nc(CC(=O)NNC(=O)c3ccc(N(C)C)cc3)nc2n1
activity change, negative = inhibition: inactive

COC(C/C=C/[C@@H](O)[C@H](C)OCc1ccccc1)OC
activity change, negative = inhibition: inactive

CCOC(=O)c1c(-c2ccccc2)oc2ccc(OCC(O)CNCCN(C)C)cc12 (stereo not drawn)
activity change, negative = inhibition: inactive

Cc1ccc(C(=O)c2c3ccc(C(F)(F)F)cc3[n+]([O-])n2CCCC(N)=O)cc1
activity change, negative = inhibition: inactive

O=C(NCCc1c[nH]c2ccccc12)OCCSS(=O)(=O)O
activity change, negative = inhibition: inactive

C=CC[N+]1(C)CC[C@]23c4c5ccc(O)c4O[C@H]2C(=O)CC[C@@]3(O)[C@H]1C5 (stereo partly drawn)
activity change, negative = inhibition: inactive

CCN1CCN(c2ccc(NC(=O)c3cccc(OCc4ccccc4)c3)cc2)CC1
activity change, negative = inhibition: inactive

CC(=O)N1c2ccc([N+](=O)[O-])cc2NC(=O)CC1C (stereo not drawn)
activity change, negative = inhibition: inactive

CCOc1ccc(NC(=O)CCSc2ccc(C)cc2)cc1
activity change, negative = inhibition: inactive

COc1ccc(S(=O)(=O)NCC2CCCO2)cc1NC(=O)c1ccccc1F (stereo not drawn)
activity change, negative = inhibition: inactive

Cc1cc2cc(C#N)c(NCCNC(=S)NCCCN3CCOCC3)nc2cc1C
activity change, negative = inhibition: inactive

C#CCNC(=O)C1=C[C@@H](C2CCCCC2)C[C@@H](OCc2ccc(CO)cc2)O1
activity change, negative = inhibition: inactive

Cc1nc(N2CCOCC2)c2cc(-c3ccccc3)sc2n1
activity change, negative = inhibition: inactive

Cc1cc(C(=O)N/N=C/c2c3ccccc3cc3ccccc23)n[nH]1
activity change, negative = inhibition: inactive

Cc1cc(Br)ccc1NC(=O)c1cnc(N2CCN(c3ccccn3)CC2)c2ccccc12
activity change, negative = inhibition: inactive

COc1ccc(-c2ccc(-c3nnc(-c4cc(OC)ccc4OC)o3)cc2)cc1
activity change, negative = inhibition: inactive

O=S(=O)(c1ccccc1)c1cnn2c(C(F)(F)F)cc(-c3ccc(F)cc3)nc12
activity change, negative = inhibition: inactive

COc1ccc(C)c2sc(NC(=O)C3=COCCO3)nc12
activity change, negative = inhibition: inactive

Nc1nc2c(ncn2COC(CO)CO)c(=O)[nH]1
activity change, negative = inhibition: inactive

COc1ccc(-c2cc3ccccc3n2CC(O)CNCCO)cc1 (stereo not drawn)
activity change, negative = inhibition: inactive

Cc1c(C)c2ccc(OC(C)C(=O)NCCCN3CCOCC3)c(C)c2oc1=O (stereo not drawn)
activity change, negative = inhibition: inactive

COc1ccc2c3c([nH]c2c1)C(C)=NCC3
activity change, negative = inhibition: inactive

COc1ccc(OC)c(NC(=O)c2cc3oc4ccccc4c3cc2O)c1
activity change, negative = inhibition: inactive

CC(=O)Nc1ccc(Cl)cc1C1COC(=O)C1=N (stereo not drawn)
activity change, negative = inhibition: inactive

COc1cc(-c2c(C#N)c(N)nc3c2c(C)nn3-c2ccc(C)c(C)c2)cc(OC)c1OC
activity change, negative = inhibition: inactive

COc1ccc(CC(=O)OCC(=O)Nc2ccc(Br)cc2)cc1
activity change, negative = inhibition: inactive

O=C(Nc1cccc2ncccc12)c1cccnc1
activity change, negative = inhibition: inactive

CC(Oc1ccc2c3c(c(=O)oc2c1)CCCC3)C(=O)NC1CC(C)(C)NC(C)(C)C1 (stereo not drawn)
activity change, negative = inhibition: inactive

Cn1c(CN2CCOCC2)c(C#N)c2ccccc21
activity change, negative = inhibition: inactive

CCCCOc1ccc(Cc2c(COCC)[nH]c(=S)[nH]c2=O)cc1
activity change, negative = inhibition: inactive

COc1ccc2[nH]c(C(=O)NCCCn3ccnc3)cc2c1
activity change, negative = inhibition: inactive

Cc1nccc2c1[nH]c1ccccc12
activity change, negative = inhibition: inactive

CC(=O)c1c(C)oc2ccc(NS(=O)(=O)c3ccc(C(=O)O)cc3)cc12
activity change, negative = inhibition: inactive

CC1COc2c(N3CCN(C)CC3)c(F)cc3c(=O)c(C(=O)O)cn1c23 (stereo not drawn)
AC50: > 10 µM (inactive)

O=C(C1CCC(=O)N(C2CC2)C1)N1CCN(c2ccccc2Cl)CC1 (stereo not drawn)
activity change, negative = inhibition: inactive

CCOC(=O)c1ccc(NC(=O)N2CCN(Cc3ccccc3)CC2)cc1
activity change, negative = inhibition: inactive

COc1ccc(/C=N/NC(=O)c2ccc(Cl)cc2)cc1COC(C)=O
activity change, negative = inhibition: inactive

COc1ccc(-c2nc3ncccc3o2)cc1NC(=O)c1ccco1
activity change, negative = inhibition: inactive

Cc1ccc(S(=O)(=O)Oc2ccc(C3C4=C(CCCC4=O)N(CCC(=O)O)C4=C3C(=O)CCC4)cc2Cl)cc1
activity change, negative = inhibition: inactive

CN(C)CC(C)(C)CNC(=S)NCc1ccc2c(c1)OCO2
activity change, negative = inhibition: inactive

CCOc1ccccc1CNC(=O)c1cc2occc2n1C
activity change, negative = inhibition: inactive

O=S(=O)(CC(CN1CCOCC1)N1CCOCC1)c1ccccc1 (stereo not drawn)
activity change, negative = inhibition: inactive

Cc1nc(N2CCOCC2)c2c(C)c(C(=O)Nc3ccccc3C(F)(F)F)sc2n1
activity change, negative = inhibition: inactive

CCn1cc(C(=O)N[C@H](C)c2ccccc2)c(=O)c2cc(F)c(N3CCN(C)CC3)cc21
activity change, negative = inhibition: inactive

Cc1c(Cl)c([N+](=O)[O-])nn1CC(=O)N1CCCc2ccccc21
activity change, negative = inhibition: inactive

CSc1ccc(/C=C/C(=O)OCC(=O)NC(C)C)cc1
activity change, negative = inhibition: inactive

CCN1CCN(Cc2c(O)ccc3c(=O)c(-c4ccccc4OC)coc23)CC1
activity change, negative = inhibition: inactive

COc1ccccc1-n1c(-c2ccccc2)c[nH]c1=S
activity change, negative = inhibition: inactive

CC(C)C(NC(=O)c1ccco1)C(=O)NCC(c1ccco1)N1CCCCC1 (stereo not drawn)
activity change, negative = inhibition: inactive

COc1cccc(-c2csc(N3CCN(C(=O)NC45CC6CC(CC(C6)C4)C5)CC3)n2)c1
activity change, negative = inhibition: inactive

COc1nc(-c2ccccc2)ccc1-c1noc(-c2ccccc2F)n1
activity change, negative = inhibition: inactive

Nc1ccccc1Oc1ccc2ccccc2c1
activity change, negative = inhibition: inactive

O=C(CCCn1c(=O)[nH]c2ccc(Br)cc2c1=O)NCc1ccc(Cl)cc1
activity change, negative = inhibition: inactive

Cc1cc(C)n(CC(=O)NC2CCCCC2C)c(=O)c1C#N (stereo not drawn)
activity change, negative = inhibition: inactive

C=CCNc1oc(/C=C/c2ccccc2)nc1C#N
activity change, negative = inhibition: inactive

C=CCc1cccc(/C=N/NC(=O)COc2ccc(-n3cnnn3)cc2)c1O
activity change, negative = inhibition: inactive

O=C(Nc1cc(Cl)cc(Cl)c1)c1coc(=O)c(Br)c1
activity change, negative = inhibition: inactive

Oc1ccc(-c2cn3cc(C(F)(F)F)ccc3n2)cc1
activity change, negative = inhibition: inactive

CCn1c(COc2cccc(C)c2)nnc1SCC(=O)NC1CCCC1
activity change, negative = inhibition: inactive

CCCCNC(=O)c1cc2c(=O)n3cccc(C)c3nc2n(Cc2ccccc2)c1=N
activity change, negative = inhibition: inactive
